This note sets out measurements from patent publication US11052245B2, “Device and method for localized delivery and extraction of material” (Helsingin Yliopisto, priority 2015, dated 2021).

Data set [1] can be described thus: In-vitro delivery of methylene blue into human nails by MHD, photograph. Conditions: MB 0.01% in PBS 1%, MHD for 10 minutes, graphite electrodes ø=6 mm, 3 mm gap, 400 mA, control immersed 10 minutes without MHD. It counts as in vitro ADME. As for the experimental part: Control: Fingernail was immersed in a solution of MB (0.01%) in PBS (1%) for 10 minutes.
Treatment; Fingernail was immersed in the MB solution and exposed to MHD during 10 minutes. The MHD method applied graphite cylindrical electrodes (ø=6 mm), 3 mm electrode gap, and 400 mA.
The darkest regions correspond to the largest concentration of MB.

Data set [2] is described as follows: Delivery of phosphotungstic acid into bovine articular cartilage by MHD, imaged with X-ray micro-tomography. It is filed as in vitro ADME. Particulars: PTA 1% in PBS; MHD for 40 s, graphite electrodes ø=6 mm, 3 mm gap, 400 mA; control immersed 40 s without MHD; XMT of 150 μm slices. The source says: Control: bovine articular cartilage was immersed in 1% PTA (˜2.8 kDa) in phosphate buffered saline (PBS) for 40 s.
Treatment: bovine articular cartilage was immersed in PTA 1% in PBS and exposed to MHD for 40 s. The MHD method applied graphite cylindrical electrodes (ø=6 mm), 3 mm electrode gap, and 400 mA.

Regarding `CN(C)c1ccc2nc3ccc(=[N+](C)C)cc-3sc2c1` [MB, methylene blue], the “Diffusion of MB into nail, treated sample vs control” value in data set [1] was “stronger than in the control”.
For `O=P(O)(O)O.[O]=[W](=[O])=[O].[O]=[W](=[O])=[O].[O]=[W](=[O])=[O].[O]=[W](=[O])=[O].[O]=[W](=[O])=[O].[O]=[W](=[O])=[O].[O]=[W](=[O])=[O].[O]=[W](=[O])=[O].[O]=[W](=[O])=[O].[O]=[W](=[O])=[O].[O]=[W](=[O])=[O].[O]=[W](=[O])=[O]` [PTA, phosphotungstic acid], the “Diffusion of PTA into cartilage, treated sample vs control” value in data set [2] is listed as “enhanced diffusion of PTA as compared to the control”.
